From PubChem BioAssay (NCI)
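1) Cells in 96-well plates. 2) Compound, 48 h, 5 concentrations. 3) Linear interpolation between surrounding doses. 4) Unreached endpoint = highest concentration. GI50: concentration for 50% inhibition of growth. At the TGI there is no net growth.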

Key:
Experiment in all cases: NCI anticancer screen, dose series, 48 h
KM20L2 colon = tested on: KM20L2 colon
MCF7 breast = tested on: MCF7 breast
MDA-MB-231 breast = tested on: MDA-MB-231 breast
A498 renal = tested on: A498 renal
A549 NSCLC = tested on: A549 NSCLC
OVCAR-3 ovarian = tested on: OVCAR-3 ovarian
SF-539 CNS = tested on: SF-539 CNS
SK-MEL-5 melanoma = tested on: SK-MEL-5 melanoma
SNB-75 CNS = tested on: SNB-75 CNS
UACC-257 melanoma = tested on: UACC-257 melanoma

SMILES	TGI (KM20L2 colon)	GI50 (MCF7 breast)	GI50 (MDA-MB-231 breast)	TGI (MDA-MB-231 breast)	TGI (A498 renal)	TGI (A549 NSCLC)	TGI (OVCAR-3 ovarian)	TGI (SF-539 CNS)	TGI (SK-MEL-5 melanoma)	TGI (SNB-75 CNS)	TGI (UACC-257 melanoma)	TGI (MCF7 breast)	GI50 (A498 renal)	GI50 (A549 NSCLC)	GI50 (OVCAR-3 ovarian)	GI50 (SF-539 CNS)	GI50 (SK-MEL-5 melanoma)	GI50 (SNB-75 CNS)	GI50 (UACC-257 melanoma)
COc1cc2c(cc1O)CCN[C@@]21CS[C@H]2c3c(OC(C)=O)c(C)c4c(c3C(COC1=O)N1C2C2c3c(cc(C)c(OC)c3O)CC([C@@H]1O)N2C)OCO4 (some centres not stated)	6.01e-05 µM	0.000277 µM	0.00325 µM	0.0357 µM															
C#CCCCCC#CC1CCCC1C1=CC(=O)c2ccccc21 (configuration not stated)	22 µM				28.3 µM	30 µM	17.8 µM	21.1 µM	20.2 µM	17.7 µM	25.2 µM								
CN(C)CCNc1ccc2nnn3c4ccc(Cl)cc4c(=O)c1c23	16 µM			25.7 µM	11.3 µM	14.1 µM	23 µM	16.2 µM	10.6 µM	9.78 µM	17.5 µM	96.2 µM							
COc1cc2c(cc1OC)C(C1(O)CCCCC1)NCC2 (configuration not stated)	> 100 µM						> 100 µM		> 100 µM	> 100 µM	> 100 µM								
C[n+]1ccccc1/C=C/c1ccc2c(c1)OCO2				> 10 µM	> 10 µM	> 10 µM	> 10 µM	> 10 µM	> 10 µM		> 10 µM	> 10 µM							
N=c1nc(N)nc(N)n1-c1ccc(S(N)(=O)=O)cc1				> 100 µM	> 100 µM	> 100 µM	> 100 µM		> 100 µM		> 100 µM								
CCCNCC(O)/C=C/[Si](C)(C)C (configuration not stated) (tested in a mixture with another compound)	> 100 µM				> 100 µM	> 100 µM	> 100 µM	> 100 µM	> 100 µM	> 100 µM	> 100 µM								
O=C(N/N=C/c1cc(Br)cc(Br)c1[O-])c1ccccc1O.O=C(N/N=C/c1cc(Br)cc(Br)c1[O-])c1ccccc1O.[Cl-].[Fe+3]	13.9 µM					36.8 µM	12.8 µM	5.35 µM	12.3 µM		29.3 µM								
Oc1ccc2ccccc2c1N=Nc1ccc(N=Nc2ccccc2)cc1				> 100 µM	> 100 µM	> 100 µM	> 100 µM		> 100 µM	> 100 µM	> 100 µM								
Cc1c(Cl)c(S(N)(=O)=O)cc(S(N)(=O)=O)c1NC(=O)c1ccc(Cl)cc1					> 100 µM	> 100 µM	> 100 µM		> 100 µM	> 100 µM	> 100 µM	> 100 µM							
CCCCCCc1ccc(O)cc1O	> 100 µM				> 100 µM	> 100 µM	> 100 µM	> 100 µM	> 79.1 µM	> 100 µM	> 85.1 µM	> 100 µM							
C/C=C1/CN2CC[C@@H]3c4ccccc4N4[C@H](C(=O)OC)[C@H]1C[C@H]2[C@]34/C=C/C1=COC[C@@H]2[C@H]1C[C@H]1c3c(c4ccccc4n3C)C[C@@H]2N1C				8.93 µM	10 µM	8.28 µM	9.66 µM	7.61 µM	7.48 µM		8.51 µM	8.67 µM							
C=C(/C=C/C=C(/CCC=C(C)C)COC(C)=O)[C@@H]1CC[C@]2([C@H](CCCO)/C(=C(/C)C=O)CC[C@]2(C)O)[C@@H]1O	27.9 µM					26.2 µM		28.5 µM			32.6 µM								
Nc1nc(SCCC/C=C/B(O)O)nc2c1ncn2C1OC(CO)C(O)C1O (configuration not stated)	> 243 µM				> 243 µM	> 243 µM	> 243 µM	> 243 µM	> 243 µM	> 243 µM	> 243 µM								
NC(Cc1ccc2oc3cc(=O)c4ccccc4c-3nc2c1)C(=O)O (configuration not stated)	> 100 µM			> 100 µM	> 84.6 µM	62.5 µM	81.5 µM	54.6 µM	11.5 µM	29.7 µM	39.3 µM	11.2 µM							
Cc1nnc2sc(-c3ccc(N)cc3)nn12				> 100 µM		> 100 µM	> 100 µM	> 100 µM	> 100 µM	95.7 µM	> 100 µM	> 100 µM							
CCOC(=O)C1=C(C)N(Cc2ccc(Cl)cc2Cl)C2(O)C(OC)CC(=O)C3C(=O)N(c4ccccc4)C(=O)C132 (configuration not stated)				7.16 µM	22.7 µM	12.4 µM	3.44 µM	12.7 µM	16.2 µM		18.2 µM	8.46 µM							
CN[C@@H]1[C@H](O)[C@H](NC)[C@H]2O[C@@]3(O)C(=O)C[C@@H](C)O[C@H]3O[C@@H]2[C@H]1O				> 100 µM	> 100 µM		> 100 µM	> 100 µM	> 100 µM	> 100 µM	> 100 µM	> 100 µM							
O=S(=O)(O)c1cc(O)c2c(O)c(N=Nc3ccc(/C=C/c4ccc(N=Nc5c(S(=O)(=O)O)cc6cc(S(=O)(=O)O)cc(O)c6c5O)cc4S(=O)(=O)O)c(S(=O)(=O)O)c3)c(S(=O)(=O)O)cc2c1	> 100 µM				> 100 µM	> 100 µM	> 100 µM	> 100 µM	> 100 µM	> 100 µM	> 100 µM								
CC(=O)O[C@H]1CC[C@]2(C)[C@H]3C(=O)C=C4[C@@H]5C[C@](C)(C(=O)N6CCCNCC6)CC[C@]5(C)CC[C@@]4(C)[C@]3(C)CC[C@H]2C1(C)C					3.1 µM	4.67 µM	3.29 µM	3 µM	4.42 µM	2.64 µM	4.26 µM		1.71 µM	1.82 µM	1.76 µM	1.62 µM	2.1 µM	1.34 µM	1.98 µM
N=C(N)SC1c2ccccc2-c2cc([N+](=O)[O-])ccc21 (configuration not stated)				23.6 µM	14.6 µM	19.4 µM	7.47 µM	13.7 µM	10.6 µM	5.7 µM	20.9 µM	12.4 µM							
CCOC(=O)C1=C(C)N2CCCOC2(C)C(C(=O)OC)C1c1cccc([N+](=O)[O-])c1 (configuration not stated)	> 100 µM					> 100 µM	> 100 µM	> 100 µM	> 100 µM	75.8 µM	> 100 µM								
CC1(C)[C@@H]2C[C@H]1C(Cc1ccccc1C[C@H]1c3cc(-c4ccccn4)ncc3[C@H]3C[C@@H]1C3(C)C)c1cc(-c3ccccn3)ncc12 (some centres not stated)				> 68 µM	4.89 µM	> 100 µM	1.45 µM	8.42 µM	28.1 µM	> 100 µM		> 100 µM							
O=[N+]([O-])/C=C/c1cccc(F)c1				38.2 µM	27.4 µM	> 100 µM	7.38 µM	20.8 µM	18.6 µM	28.1 µM	15.8 µM	3 µM							
